According to US20100247427A1, “Methods of inhibiting cell growth and methods of enhancing radiation responses” (University of South Florida, priority 2005, published 2010):

Key:
Stat3 = Stat3 (Homo sapiens, UniProt P40763); conditions: other reports; cited from earlier work
DU145 cells = assay: TUNEL assay for apoptosis; assay type: cell-based, Human; conditions: Cisplatin plus radiation; FIG. 5
Experimental: TUNEL assay. Cells were labeled for apoptotic DNA strand breaks by terminal deoxyribonucleotidyl transferase-mediated dUTP nick end labeling (TUNEL) reaction using a flow cytometry assay (Roche Applied Science, Indianapolis, Ind.) according to the instructions of the supplier. DU145 cells were treated with CPA-7 for 4 hours, then irradiated, and subjected to the TUNEL assay 24 to 48 hours later. To determine cellular viability, cells were harvested by trypsinization and counted by trypan blue exclusion assay at 24 and 48 hours after irradiation. All experiments were done in triplicate.
The enhancement of radiation responsiveness was also evident when apoptosis was measured using a TUNEL assay (FIGS. 4 and 5). DU145 cells were pre-treated for 4 hours with CPA-7 or vehicle alone prior to radiation. A TUNEL assay was performed 24 hours post-radiation and the results are depicted in FIG. 4. At 24 hours, only 2% of untreated cells had undergone spontaneous apoptosis. […] In contrast, 15.7% of cells treated with both radiation and CPA-7 had undergone apoptosis at 24 hours, indicative of a synergistic effect. FIG. 5 depicts the results of a similar assay in which cells were pre-treated with CPA-7 for 24 hours prior to irradiation. […] Additionally, not all platinum complexes have this effect.

Sequence of Stat3 (P40763 whole entry, species assumed): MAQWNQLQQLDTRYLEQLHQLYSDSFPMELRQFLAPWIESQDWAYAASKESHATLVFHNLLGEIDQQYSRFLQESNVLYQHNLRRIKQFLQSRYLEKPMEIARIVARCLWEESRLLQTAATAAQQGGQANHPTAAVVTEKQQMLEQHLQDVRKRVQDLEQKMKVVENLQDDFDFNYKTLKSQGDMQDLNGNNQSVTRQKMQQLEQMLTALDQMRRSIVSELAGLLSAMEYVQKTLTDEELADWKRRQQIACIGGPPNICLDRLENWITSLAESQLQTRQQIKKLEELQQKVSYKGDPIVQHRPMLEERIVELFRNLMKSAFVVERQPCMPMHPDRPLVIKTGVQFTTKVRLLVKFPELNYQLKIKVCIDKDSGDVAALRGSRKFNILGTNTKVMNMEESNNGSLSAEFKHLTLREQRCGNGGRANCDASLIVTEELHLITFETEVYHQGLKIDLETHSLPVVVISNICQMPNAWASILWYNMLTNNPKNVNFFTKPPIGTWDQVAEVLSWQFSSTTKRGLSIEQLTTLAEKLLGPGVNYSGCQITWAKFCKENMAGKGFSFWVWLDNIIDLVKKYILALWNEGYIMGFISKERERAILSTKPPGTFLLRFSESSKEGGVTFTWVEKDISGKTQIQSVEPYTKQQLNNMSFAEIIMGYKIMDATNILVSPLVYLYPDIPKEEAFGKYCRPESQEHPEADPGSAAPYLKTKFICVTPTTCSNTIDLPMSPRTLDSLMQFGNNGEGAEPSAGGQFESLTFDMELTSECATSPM

SMILES: N.N.[Cl][Pt][Cl] [Cisplatin]
- modulation of Stat3 activation (Stat3): does not modulate Stat3 activation
- apoptosis rate in combination with radiation (TUNEL) (DU145 cells): not significantly enhanced
